Values after ≈ are worked out from the molar mass of the structure shown.
Key:
Typhlodromus pyri [1] = conditions: chronic/long-term; reproduction
Colinus virginianus = conditions: for LD50: acute, oral, mortality
Tagia sp. = conditions: chronic/long-term; duration: 56 days; reproduction
Apis mellifera = conditions: acute, mortality
Bibionidae = conditions: chronic/long-term; duration: 28 days; other
Daphnia magna = conditions: chronic/long-term; duration: 21 days; other
Typhlodromus pyri [2] = test: LR50; higher = less toxic; conditions: acute; mortality

With `C#CCOC(=O)[C@@H](C)Oc1ccc(Oc2ncc(Cl)cc2F)cc1` [Clodinafop-propargyl] the NOEC (Typhlodromus pyri [1]) was 90 g/ha, the LD50 (Colinus virginianus; duration: 5 days, diet) was > 1040 mg/kg-day and the LD50 (Colinus virginianus) was 1460 mg/kg-day. For the same compound, the NOEC (Colinus virginianus; reproduction developmental) was 48.9 mg/kg-day, the NOEC (Tagia sp.) was 5 mg/kg and the LC50 (Lepomis macrochirus; acute, duration: 96 hours, mortality) was 0.21 µg/mL (≈ 0.6 µM). For the same compound, the NOEC (Lepomis macrochirus; chronic/long-term, duration: 33 days, other) was 0.024 mg/L, the LD50 (Apis mellifera; dermal) was > 271 µg/piece and the LD50 (Apis mellifera; oral, unspecified) was > 104 µg/piece. The NOEC (Bibionidae) was 1.2 mg/L, the LD50 (Rattus norvegicus; acute, oral, mortality) was > 1390 mg/kg-day and the NOAEL (Rattus norvegicus; chronic, duration: 2 years, clinical chemistry) was 0.03 mg/kg-day. It also gave an NOAEL (Rattus norvegicus; developmental, development) of 5 mg/kg-day, an NOAEL (Rattus norvegicus; reproduction developmental, body weight) of 3.4 mg/kg-day and an NOEC (Daphnia magna) of 0.23 mg/L. The LR50 (Typhlodromus pyri [2]) was > 90 g/ha.

— EPA's ToxValDB 9.5 (doi:10.2903/j.efsa.2018.5467)
